This is an account of results in US5024994A, “Renin inhibitors IV” (Warner-Lambert Company, priority 1988, dated 1991).

Non-standard residues stand in square brackets, D forms with d. Residues, ends and D or L forms follow the SMILES beside them. *: point of attachment. Arg(NO2) = N=C(NCCC[C@H](N)C(=O)O)N[N+](=O)[O-]; Sta = CC(C)C[C@H](N)[C@@H](O)CC(=O)O; Boc = CC(C)(C)OC(=O)*; NHBn = c1ccc(CN*)cc1

As a reminder, the IC50 is the concentration that inhibits the measured activity by half. One may read the inhibition as the share of the control response that was lost under treatment.

The target in the first assay is T1, renin (Homo sapiens, UniProt P00797).
T1 sequence (P00797 67-406): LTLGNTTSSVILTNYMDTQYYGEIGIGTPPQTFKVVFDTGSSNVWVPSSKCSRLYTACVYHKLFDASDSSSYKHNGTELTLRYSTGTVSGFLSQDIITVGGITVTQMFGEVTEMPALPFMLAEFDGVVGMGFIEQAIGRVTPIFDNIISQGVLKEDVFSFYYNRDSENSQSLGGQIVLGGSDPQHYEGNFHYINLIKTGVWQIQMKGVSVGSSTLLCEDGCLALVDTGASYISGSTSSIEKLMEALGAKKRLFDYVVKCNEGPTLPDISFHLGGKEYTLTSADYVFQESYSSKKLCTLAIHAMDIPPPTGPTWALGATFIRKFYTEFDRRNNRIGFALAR
In words: in vitro renin inhibitory activity, radioimmunoassay for angiotensin I.
Details: not given
In kind it is biochemical. How it is done: The effectiveness of the aforementioned compounds is determined by a test for in vitro renin inhibitory activity. This activity is determined by a standard radioimmunoassay for angiotensin I. In this assay the enzyme, renin, incubated for two hours at 37° in the presence of a substrate, angiotensinogen, generates the product, angiotensin I. Test compounds are added to the incubation mixture.
In turn, `CC[C@H](C)CNC(=O)C[C@H](O)[C@H](CC(C)C)NC(=O)[C@H](CCCCNS(=O)(=O)c1ccc(C)cc1)NC(=O)C(Cc1cccc2ccccc12)Cc1cccc2ccccc12` [Example 41, DNMA-LYS(TOS)-STA-NHCH2 CH(CH3)CH2 CH3] registered an IC50 of 3 µM. Same read-out and setting: the value for `CC[C@H](C)CNC(=O)C[C@H](O)[C@H](CC(C)C)NC(=O)[C@H](CCCCn1cccc1)NC(=O)C(Cc1cccc2ccccc12)Cc1cccc2ccccc12` was 0.087 µM; that for `CCC(C)CNC(=O)C[C@H](O)[C@H](CC(C)C)NC(=O)C(CC#CCNC(C)=O)NC(=O)C(Cc1cccc2ccccc12)Cc1cccc2ccccc12` (single isomer, unassigned) was 0.029 µM; that for `CNC(=S)NCCCC[C@H](NC(=O)C(Cc1cccc2ccccc12)Cc1cccc2ccccc12)C(=O)N[C@@H](CC(C)C)[C@@H](O)CC(=O)N[C@@H](CC(C)C)C(=O)NCc1ccccc1` was 0.06 µM. The compound `CC[C@H](C)CNC(=O)C[C@H](O)[C@H](CC(C)C)NC(=O)C(NC(=O)[C@H](Cc1ccccc1)NC(=O)OC(C)(C)C)C(=O)N1CCCC1` (stereo partly drawn) registered an IC50 of 0.4 µM. As for `CC[C@H](C)CNC(=O)C[C@H](O)[C@H](CC(C)C)NC(=O)C(CC#CCNC(=O)OCc1ccccc1)NC(=O)C(Cc1cccc2ccccc12)Cc1cccc2ccccc12` (stereo partly drawn), half-maximal inhibition (IC50) was put at 0.15 µM. Regarding `CC(C)C[C@H](NC(=O)C[C@H](O)[C@H](CC(C)C)NC(=O)C(CCCCCNC(=N)N[N+](=O)[O-])NC(=O)C(Cc1cccc2ccccc12)Cc1cccc2ccccc12)C(=O)NCc1ccccc1` (stereo partly drawn), the IC50 amounted to 0.11 µM. The same measure, in the same setting: the value for `CCC(C)CNC(=O)C[C@H](O)[C@H](CC(C)C)NC(=O)[C@H](CCCCNP(=O)(Oc1ccccc1)Oc1ccccc1)NC(=O)C(Cc1cccc2ccccc12)Cc1cccc2ccccc12` (stereo partly drawn) was 7.4 µM. On the same count and under the same terms, then `CNC(=S)NCCCC[C@H](NC(=O)C(Cc1ccccc1)CS(=O)(=O)C(C)(C)C)C(=O)N[C@@H](CC1CCCCC1)[C@@H](O)CC(=O)NCCN1CCOCC1` (stereo partly drawn), with 0.027 µM.

As to `CC(C)C[C@H](NC(=O)C[C@H](O)[C@H](CC(C)C)NC(=O)[C@H](CCCCNC(=N)N[N+](=O)[O-])NC(=O)C(Cc1cccc2ccccc12)Cc1cccc2ccccc12)C(=O)NCc1ccccc1`, the IC50 amounted to 0.015 µM. The same measure, in the same setting: the value for `CCC(C)CNC(=O)C[C@H](O)[C@H](CC(C)C)NC(=O)C(CCCCCNC(=N)N[N+](=O)[O-])NC(=O)C(Cc1cccc2ccccc12)Cc1cccc2ccccc12` (stereo partly drawn) was 0.026 µM; that for `CCC(C)CNC(=O)C[C@H](O)[C@H](CC(C)C)NC(=O)C(C/C=C/CNC(=S)NC)NC(=O)C(Cc1cccc2ccccc12)Cc1cccc2ccccc12` (stereo partly drawn) was 0.041 µM; that for `CC[C@H](C)CNC(=O)C[C@H](O)[C@H](CC(C)C)NC(=O)C(CCCCCCNC(=S)NC)NC(=O)C(Cc1cccc2ccccc12)Cc1cccc2ccccc12` (stereo partly drawn) was 0.045 µM. Still for that read-out and setting: then `CC[C@H](C)CNC(=O)C[C@H](O)[C@H](CC(C)C)NC(=O)C(NC(=O)C(Cc1cccc2ccccc12)Cc1cccc2ccccc12)C(=O)OC` (stereo partly drawn), with 0.023 µM.

Still in this assay, the particulars now being: at 10^-6 molar concentration; read-out: percent inhibition of renin activity.
In the case of `CC[C@H](C)CNC(=O)C[C@H](O)[C@H](CC(C)C)NC(=O)C(CCCCCCNC(=O)OCc1ccccc1)NC(=O)C(Cc1cccc2ccccc12)Cc1cccc2ccccc12` (stereo partly drawn), the inhibition at 1 µM was determined as 28%. Still for that read-out and setting: the value for `CC[C@H](C)CNC(=O)C[C@H](O)[C@H](CC(C)C)NC(=O)C(NC(=O)C(Cc1cccc2ccccc12)Cc1cccc2ccccc12)C(=O)NC` (stereo partly drawn) was 26%.

Still in this assay, the particulars now being: read-out: IC50.
For `CC(C)C[C@H](NC(=O)[C@H](CCCCNC(=N)N[N+](=O)[O-])NC(=O)C(CC(=O)N1CCOCC1)Cc1cccc2ccccc12)[C@@H](O)CC(=O)NCCN1CCOCC1` (stereo partly drawn), the IC50 was determined as 0.42 µM.

On to `CC[C@H](C)CNC(=O)C[C@H](O)[C@H](CC(C)C)NC(=O)C(NC(=O)[C@H](Cc1ccccc1)NC(=O)OC(C)(C)C)C(=O)OC` (stereo partly drawn), for which the concentration for half-maximal inhibition (IC50) was 0.041 µM. Same read-out and setting: the value for `CC[C@H](C)CNC(=O)C[C@H](O)[C@@H](NC(=O)[C@H](CCCCNC(=S)NC)NC(=O)C(Cc1cccc2ccccc12)Cc1cccc2ccccc12)C1CCCCC1` was 0.023 µM; that for `CNC(=O)NCCCC[C@H](NC(=O)C(Cc1cccc2ccccc12)Cc1cccc2ccccc12)C(=O)N[C@@H](CC(C)C)[C@@H](O)CC(=O)N[C@@H](CC(C)C)C(=O)NCc1ccccc1` was 0.084 µM. Still for that read-out and setting: the value for `CCC(C)CNC(=O)C[C@H](O)[C@H](CC(C)C)NC(=O)C(NC(=O)C(Cc1cccc2ccccc12)Cc1cccc2ccccc12)C(=O)OC(C)C` (stereo partly drawn) was 0.033 µM; that for `CCCCNC(=S)NCCCC[C@H](NC(=O)C(Cc1cccc2ccccc12)Cc1cccc2ccccc12)C(=O)N[C@@H](CC(C)C)[C@@H](O)CC(=O)NCC(C)CC` (stereo partly drawn) was 0.058 µM; that for `CC[C@H](C)CNC(=O)C[C@H](O)[C@H](CC(C)C)NC(=O)[C@H](CCCCNC(=S)NC)NC(=O)C(Cc1cccc2ccccc12)Cc1cccc2ccccc12` was 0.0096 µM.

Regarding `CC(C)C[C@H](NC(=O)C[C@H](O)[C@H](CC(C)C)NC(=O)[C@H](CCCNC(=N)N[N+](=O)[O-])NC(=O)[C@H](Cc1ccccc1)NC(=O)OC(C)(C)C)C(=O)NCc1ccccc1` [Example 1, BOC-PHE-ARG(NO2)-STA-LEU-NHCH2 Ph] (Boc-F[Arg(NO2)][Sta]L-NHBn), the IC50 was found to be 0.063 µM.

For `CCC(C)CNC(=O)C[C@H](O)[C@H](CC(C)C)NC(=O)C(CCCCCNC(=O)OCc1ccccc1)NC(=O)C(Cc1cccc2ccccc12)Cc1cccc2ccccc12` (stereo partly drawn), the IC50 is 0.29 µM. Same read-out and setting: the value for `CNC(=S)NCCCC[C@H](NC(=O)C(Cc1cccc2ccccc12)Cc1cccc2ccccc12)C(=O)N[C@@H](CC1CCCCC1)[C@@H](O)CC(=O)NCCN1CCOCC1` was 0.029 µM.

Consider `CC[C@H](C)CNC(=O)C[C@H](O)[C@H](CC(C)C)NC(=O)C(CC#N)NC(=O)[C@H](Cc1ccccc1)NC(=O)CC(C)C` (stereo partly drawn), for which the IC50 was determined as 0.57 µM.

`CC[C@H](C)CNC(=O)C[C@H](O)[C@H](CC(C)C)NC(=O)[C@H](CCCCNC(=O)CSC)NC(=O)C(Cc1cccc2ccccc12)Cc1cccc2ccccc12`: the IC50 turned out to be 0.098 µM. With `CC[C@H](C)CNC(=O)C[C@H](O)[C@H](CC(C)C)NC(=O)C(NC(=O)C(Cc1cccc2ccccc12)Cc1cccc2ccccc12)C(=O)N(C)C` (stereo partly drawn), the IC50 turned out to be 0.2 µM. The same measure, in the same setting: the value for `CC[C@H](C)CNC(=O)C[C@H](O)[C@H](CC(C)C)NC(=O)[C@H](CCCCNC(=S)NCC(C)(C)C)NC(=O)C(Cc1cccc2ccccc12)Cc1cccc2ccccc12` was 0.45 µM; that for `CSC(=NC#N)NCCCC[C@H](NC(=O)C(Cc1cccc2ccccc12)Cc1cccc2ccccc12)C(=O)N[C@@H](CC(C)C)[C@@H](O)CC(=O)NCCN1CCOCC1` was 0.09 µM; that for `CC(C)C[C@H](NC(=O)[C@H](CCCCNC(=N)N[N+](=O)[O-])NC(=O)C(Cc1cccc2ccccc12)Cc1cccc2ccccc12)[C@@H](O)CC(=O)NCCN1CCOCC1` was 0.045 µM. Same read-out and setting: then `CCC(C)CNC(=O)C[C@H](O)[C@H](CC(C)C)NC(=O)[C@H](CCCCNC(=S)NC(C)(C)CC)NC(=O)C(Cc1cccc2ccccc12)Cc1cccc2ccccc12` (stereo partly drawn), with 0.0075 µM; and `N=C(NCC#CCC(NC(=O)C(Cc1cccc2ccccc12)Cc1cccc2ccccc12)C(=O)N[C@@H](CC1CCCCC1)[C@@H](O)CC(=O)NCCN1CCOCC1)N[N+](=O)[O-]` (stereo partly drawn), with 0.012 µM. The same measure, in the same setting: the value for `CC[C@H](C)CNC(=O)C[C@H](O)[C@H](CC(C)C)NC(=O)C(CCCCCCNC(N)=NC#N)NC(=O)C(Cc1cccc2ccccc12)Cc1cccc2ccccc12` (stereo partly drawn) was 0.045 µM.

Consider `CNC(=S)NCCCC[C@H](NC(=O)C(Cc1cccc2ccccc12)Cc1cccc2ccccc12)C(=O)N[C@@H](CC(C)C)[C@@H](O)CC(=O)NCCN1CCOCC1`, for which the IC50 is 0.12 µM.
